Converted amounts (≈) assume the structure as drawn.
Assays:
[1] = test system: bronchospasm by histamine (Guinea pig); experiment: Bronchospasmolytic activity according to Konzett-Rossler, histamine bronchospasm; format: in vivo; conditions: for ED50: Cavia porcellus, iv, Guinea pig, irritant histamine, read-out: Bronchospasmolysis ID50, Histamine
Procedure: (§1) test of intravenously administered preparations for bronchospasmolytic activity according to Konzett-Rossler.
(§2) Except for irrelevant modifications, the test arrangement used largely corresponded to the description given by H. Konzett and R. Rossler, Arch. exp. Path. Pharmakol. 195, 71 (1940)). Test animals were male white Guinea pigs having a weight of 400 to 500 g. They were anesthesized with hexobarbital and urethane. All preparations to be administered were diluted with phosphate buffer (pH = 7.4) and administered in a volume of 0.1 ml.
(§3) Physiological or pharmacological effects were registered by measuring the air volume in the lung when the maximum blowing pressure was kept constant and a constant volume was maintained by respiration above atmospheric pressure. Capacity modifications in the respiratory tract show themselves in an increase or decrease of the air volume absorbed by the lung under the given constant blowing pressure. To produce a heavy bronchospasm acetylquoline or histamine were injected by the intravenous route. The dosage unit of the irritant was chosen such that an about 70 to 80 % decrease of the absorption capacity of the lung was obtained. The substance to be examined was administered by the intravenous route in the V. jugularis. 30 seconds thereafter the already evaluated dosage unit of the irritant was injected once more. The medium inhibition dose was red off from the dose activity curve drawn either graphically or by means of regression analysis.

blood pressure (cat) = experiment: Test for the effect on the blood circulation (hypotensive properties, Kannegiesser and Lee); format: in vivo
Procedure: Test for the effect on the blood circulation
The hypotensive properties were examined in accordance with the methods described by Kannegiesser and Lee, Nature 229, 498 (1971).
Test animals were cats of both sexes having a weight of 2.0 to 3.0 kg.
The animals were anesthesized with pentobarbital in an amount of 1.7 to 2.8 mg/ml in 0.9 % NaCl-solution as continuous infusion with 5 mg/kg/hour and pretreated with pentolinium (Ansolysen, May & Baker) with 10 mg/animal by the intraperitoneal route. The test substances were administered through the Vena jugularis. The blood pressure was measured in the A. carotis ext. directly and recorded by means of a Statham pressure sensor on a multi-channel recorder.
The maximum change of the systolic and diastolic blood pressure was measured in mm Hg.
All test preparations were present as stock solutions in absolute alcohol and were diluted to the end concentration immediately before the test beginning in phosphate buffer (pH = 7.4).

[2] = test system: unstriped musculature (isolated rat stomach); experiment: Effect on the unstriped musculature (isolated rat stomach according to Vane); format: cell-based, rat (Wistar); conditions: for EC50: 37° C, activity relative to contraction after 600 ng/ml PGA2, Table 1, read-out: Action on the unstriped musculature (isolated rat stomach) ED50
Procedure: Effect on the unstriped musculature (isolated rat stomach according to Vane, Br. J. Pharmac. Chemother., 12 344 (1957)).
The test was carried out on Wistar rats of both sexes having a weight of 200 to 220 g. The animals were killed by a blow onto the neck, the stomach was rapidly taken out and put into a Petri dish containing a pre-heated cancer solution. The fundus which is easily to be distinguished from the pyloric part because of its grey color, was separated and opened longitudinally by a longitudinal cut. Transversal cuts in counter-direction to each other led to a stripe which could be hung into the organ bath. The organ bath contained the usual cancer solution which was maintained at a temperature of 37° C and which was risen in bubbles with a mixture of 95 % O2 and 5 % CO2. A writing lever charged with 1 g served to register on a kymograph the contractions produced by adding the substance to be examined to the organ bath. The test criterion was the contraction occurring after the addition of the substance to be examined. The degree of activity was determined by comparing the contraction occurring after 600 ng/ml PGA2. The values expressed in % with regard to the comparison preparation were used to draw a dose-activity-curve which allowed to determine the medium activity dose.
All substances were present as stock-solutions in absolute alcohol and were diluted to their final concentration with phosphate buffer (pH = 7.4).

[3] = test system: bronchospasm by acetylquoline (Guinea pig); experiment: Bronchospasmolytic activity according to Konzett-Rossler, acetylquoline bronchospasm; format: in vivo; conditions: Cavia porcellus, iv, irritant acetylquoline, read-out: Bronchospasmolysis ID50, acetylquoline
Procedure: as §1, §2, §3

EC50 ([2]; isolated rat stomach)	SMILES	ED50 [1]	Blood pressure (modifications in mm Hg), first value (systolic) (blood pressure (cat); at 0.5 μg/kg i.v. (cat))	Blood pressure (modifications in mm Hg), second value (diastolic) (blood pressure (cat); at 0.5 μg/kg i.v. (cat))	ED50 [3]	bronchodilating activity ([1]; in words, irritant not specified)	Blood pressure (modifications in mm Hg), first value (systolic) (blood pressure (cat); after 5 μ/kg i.v. (cat))	Blood pressure (modifications in mm Hg), second value (diastolic) (blood pressure (cat); after 5 μ/kg i.v. (cat))	blood-pressure lowering activity (blood pressure (cat); in words, compared with 15-α-hydroxy-9-oxo-13-trans-prostenoic acid)	spasmogen activity ([2]; in words)	Blood pressure (modifications in mm Hg), one value printed (systolic and diastolic not separated) (blood pressure (cat); after 5 μ/kg i.v. (cat))	ED50 in the isolated rat stomach ([2]; isolated rat stomach)
0.5 µg/mL	CCCCCC(O)/C=C/C1CCC(=O)C1CCCC(C)CCC(=O)O (mixture of isomers) [Example 6, rac. 15-α-Hydroxy-4-methyl-9-oxo-13-trans-prostenoic Acid]	0.9 µg/kg	–	–	0.5 µg/kg	–	-45 mm Hg	-50 mm Hg	–	–	–	–
1 µg/mL	CCCCCC(O)/C=C/C1CCC(=O)C1CCCCC(C)CC(=O)O (mixture of isomers) [Example 7, rac. 15-α-Hydroxy-3-methyl-9-oxo-13-trans-prostenoic Acid]	4 µg/kg	–	–	1 µg/kg	–	-10 mm Hg	-20 mm Hg	–	–	–	–
1.3 µg/mL	CCCCCC(O)/C=C/C1CCC(=O)C1CCCCCC(C)C(=O)O (mixture of isomers) [Example 8, rac. 15-α-Hydroxy-2-methyl-9-oxo-13-trans-prostenoic Acid]	–	–	–	> 10 µg/kg	–	–	–	–	–	0 mm Hg	–

Further lines, the compound ahead of its results:

SMILES	EC50 ([2]; isolated rat stomach)	ED50 [1]	Blood pressure (modifications in mm Hg), first value (systolic) (blood pressure (cat); at 0.5 μg/kg i.v. (cat))	Blood pressure (modifications in mm Hg), second value (diastolic) (blood pressure (cat); at 0.5 μg/kg i.v. (cat))	ED50 [3]	bronchodilating activity ([1]; in words, irritant not specified)	Blood pressure (modifications in mm Hg), first value (systolic) (blood pressure (cat); after 5 μ/kg i.v. (cat))	Blood pressure (modifications in mm Hg), second value (diastolic) (blood pressure (cat); after 5 μ/kg i.v. (cat))	blood-pressure lowering activity (blood pressure (cat); in words, compared with 15-α-hydroxy-9-oxo-13-trans-prostenoic acid)	spasmogen activity ([2]; in words)	Blood pressure (modifications in mm Hg), one value printed (systolic and diastolic not separated) (blood pressure (cat); after 5 μ/kg i.v. (cat))	ED50 in the isolated rat stomach ([2]; isolated rat stomach)
CCCCCC(O)/C=C/C1CCC(=O)C1CCCCCCC(=O)O (mixture of isomers) [Example 4, rac. 15-α-Hydroxy-9-oxo-13-trans-prostenoic Acid]	0.1 µg/mL	0.1 µg/kg	-22 mm Hg	-27 mm Hg	0.1 µg/kg	–	–	–	–	–	–	–
CCCCCC(O)/C=C/C1CCC(=O)C1CCC(C)CCCC(=O)O (mixture of isomers) [Example 5, rac. 15-α-Hydroxy-5-methyl-9-oxo-13-trans-prostenoic Acid]	0.2 µg/mL	–	–	–	0.4 µg/kg	good bronchodilating activity	-20 mm Hg	-30 mm Hg	reduced as compared with 15-α-hydroxy-9-oxo-13-trans-prostenoic acid	good spasmogen activity	–	–
CCCCCC(O)C=C[C@H]1CCC(O)[C@@H]1CC=CCOCC(=O)O (mixture of isomers) [Example 29 A, rac. 9,15-dihydroxy-3-oxa-5,13-trans-prostadienic acid]	–	–	–	–	–	–	–	–	–	–	–	3.1 µg/mL (≈ 9.11 µM)

From patent US4078083A, “Novel prostanoic acids” (Hoechst Aktiengesellschaft, priority 1973, dated 1978)
